Results: PubChem BioAssay (NCI)
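All cell lines were grown in 96-well plates and treated with compound for 48 hours. Here, GI50 denotes the concentration required for 50% inhibition of growth. Definition used: TGI = concentration required for complete inhibition of growth.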 Where a SMILES comes first, the peptide text is derived from it. The star is where a group is joined. Cbz = O=C(OCc1ccccc1)*; Bn = c1ccc(C*)cc1

How the values were obtained:
Assay in all cases: NCI anticancer screen, dose series, 48 h
SF-268 CNS = system: SF-268 CNS
A549 NSCLC = system: A549 NSCLC
SF-295 CNS = system: SF-295 CNS
NCI-H460 lung = system: NCI-H460 lung
COLO 205 colon = system: COLO 205 colon
IGROV1 ovarian = system: IGROV1 ovarian
OVCAR-8 ovarian = system: OVCAR-8 ovarian
HT29 colon = system: HT29 colon
U251 CNS = system: U251 CNS
SK-OV-3 ovarian = system: SK-OV-3 ovarian
HCT-116 colon = system: HCT-116 colon
A498 renal = system: A498 renal
OVCAR-4 ovarian = system: OVCAR-4 ovarian

Row | SMILES | TGI (SF-268 CNS) [µM] | TGI (A549 NSCLC) [µM] | TGI (SF-295 CNS) [µM] | TGI (NCI-H460 lung) [µM] | TGI (COLO 205 colon) [µM] | TGI (IGROV1 ovarian) [µM] | TGI (OVCAR-8 ovarian) [µM] | TGI (HT29 colon) [µM] | TGI (U251 CNS) [µM] | TGI (SK-OV-3 ovarian) [µM] | TGI (HCT-116 colon) [µM] | TGI (A498 renal) [µM] | TGI (OVCAR-4 ovarian) [µM] | GI50 (SF-268 CNS) [µM] | GI50 (SF-295 CNS) [µM] | GI50 (NCI-H460 lung) [µM] | GI50 (COLO 205 colon) [µM] | GI50 (SK-OV-3 ovarian) [µM] | GI50 (A498 renal) [µM] | GI50 (OVCAR-4 ovarian) [µM]
1 | COc1ccc(-c2oc3cc(OC(C)=O)cc(OC(C)=O)c3c(=O)c2OC)cc1 | 46.9 | 74.1 | 37.8 | 37.5 | 33.9 | 38 | 53.6 | 36.3 | 30.6 | 80.6 | 44.3 | 61.1 |  |  |  |  |  |  |  | 
2 | CC(=O)OCC1OC(NC(=O)N(CCCl)N=O)C(OC(C)=O)C(OC(C)=O)C1OC(C)=O (configuration not stated) | > 100 | > 100 | > 100 | > 100 | > 100 | > 100 | > 100 | > 100 | > 100 | > 100 | > 100 | > 100 | > 100 |  |  |  |  |  |  | 
3 | C=CCOCCC(CC=C)C(=O)CC(=O)OC (configuration not stated) | > 100 | > 100 | > 100 | > 100 |  | > 100 | > 100 | > 100 | > 100 | > 100 | > 100 | > 100 | > 100 |  |  |  |  |  |  | 
4 | CCn1c(=O)c(C(=O)O)c(Cl)c2cc3c(cc21)OCO3 | > 100 | > 100 | > 100 | > 100 | > 100 | > 100 | > 100 | > 100 | > 100 | > 100 | > 100 | > 100 | > 100 |  |  |  |  |  |  | 
5 | NC(=O)c1ccc([N+](=O)[O-])cc1 | > 100 | > 100 | > 100 | > 100 | > 100 | > 100 | > 100 | > 100 | > 100 | > 100 |  | > 100 |  |  |  |  |  |  |  | 
6 | C1CSCCSCSCCS1 | > 100 | > 100 | > 100 | > 100 | > 100 | > 100 | > 100 | > 100 | > 100 | > 100 | > 100 | > 100 | > 100 |  |  |  |  |  |  | 
7 | O=C1c2cccc(O)c2C(=O)c2c(O)cccc21 | > 100 | > 100 | > 100 | > 100 | > 100 | > 100 | > 100 | > 100 | > 100 | > 100 | > 100 | > 100 | > 100 |  |  |  |  |  |  | 
8 | N=C(N)c1ccc(-c2ccc(-c3ccc4ccccc4c3)s2)s1 | 5.5 |  | 5.99 | 3.7 | 3.17 |  |  |  |  | 42.3 |  | 10.5 |  | 2.25 | 2.27 | 1.95 | 1.63 | 20.2 | 1.7 | 
9 | COc1ccc(N2C(=O)/C(=C\c3ccccc3)SC2c2cc(OC)c(OC)c(OC)c2)cc1 (configuration not stated) | > 100 | > 100 | > 100 |  | > 100 |  | > 100 | > 100 | > 100 | > 100 | > 100 | > 100 | > 100 |  |  |  |  |  |  | 
10 | CS(=O)(=O)c1ccc2nc(-c3ccc(O)cc3)sc2c1 | 32.3 | 34.3 | 30.3 | 35.3 | > 100 | 34.9 | 42.7 | 26 | 39.5 | 31.3 | 30.5 | 31.2 |  |  |  |  |  |  |  | 
11 | C=CCNC1=C2C[C@@H](C)C[C@H](OC)[C@H](O)[C@@H](C)/C=C(\C)[C@H](OC(N)=O)[C@@H](OC)/C=C\C=C(/C)C(=O)NC(=CC1=O)C2=O | 49.6 | 17.8 | 7.46 | 15.9 | 1.67 | 15.1 | 46 | 12.1 | 49.5 | 58.8 | 26.1 | 30 | 26.4 |  |  |  |  |  |  | 
12 | COc1ccc2c(c1)C(OC)C1c3c(cc4c(c3-2)OCO4)CCN1C (configuration not stated) | 20.2 | 9.87 | 11.7 | 8.83 | > 43.6 | 14.8 | 13.9 | 14.1 | 18.9 | 23.1 | > 71.7 | 4.96 | 10.3 |  |  |  |  |  |  | 
13 | O=C(Nc1ccc(Cl)cc1)c1cc([N+](=O)[O-])ccc1O | 47.7 | > 96.2 | 30.4 | > 79.8 | 12.6 | 69.5 | 30.7 | 29.1 | > 70.7 | 25.4 | 20.8 | 11.2 | > 100 |  |  |  |  |  |  | 
14 | CC1C[C@]2(C[C@@H](C)C(=O)O2)OC2CC3(C)C4CCC5C(C)(C)OC(=O)CC[C@@]56C[C@@]46CC[C@]3(C)C12 (some centres not stated) | > 100 | > 100 | > 100 | > 100 | > 100 | > 100 | > 100 | > 100 | > 100 |  | > 100 | > 100 | > 100 |  |  |  |  |  |  | 
15 | C[n+]1c2ccccc2c(CNCC(=O)O)c2ccccc21 | 1.9 | 13.1 | 17.2 | 14.8 | 2.9 | 22.6 | 7.84 | 12.1 | 12.5 | 15.7 | 1.3 | 7.43 | 25.2 |  |  |  |  |  |  | 
16 | c1ccc(-c2n(Cc3ccc4ccccc4c3)c3ccccc3[n+]2Cc2ccc3ccccc3c2)cc1 |  |  | 1.11 |  |  |  |  |  |  | 1.08 |  | 0.933 | 0.818 |  | 0.306 |  |  | 0.309 | < 0.043 | 0.245
17 | COC(=O)C(Cc1ccc(O)cc1)NC(=O)C(COCc1ccccc1)NC(=O)OCc1ccccc1 (configuration not stated) (Cbz-Ser(Bn)-Tyr-OMe; configuration not given here) | 31.9 | 35.7 | 35.3 | 14.3 | 31.1 | 32.3 | 31.8 | 28.6 | 33.5 | 31.4 | 35.7 | 58 | 34 |  |  |  |  |  |  | 
